Source: patent US20110053916A1 (Vertex Pharmaceuticals Incorporated, priority 2009, published 2011)

Legend:
PknB = target: T1, PknB (Mycobacterium tuberculosis, UniProt P9WI81); test: biochemical; design: species or system M. tuberculosis; settings: 3 nM PknB, 6 uM GarA, 3 μM ATP, 30 min, competitive tight-binding fit, several symbols in a cell = repeat determinations; for Ki: read-out: Ki Values
T1 construct: made in house

[1] = system: Mycobacterium tuberculosis H37Ra; test: Mycobacterium tuberculosis growth inhibition assay (microtiter dilution, resazurin reduction); format: cell-based; settings: 7H9 broth, 9 days + 24 h resazurin, lowest concentration inhibiting resazurin reduction by >70%, several symbols in a cell = repeat determinations
Protocol: Compounds were screened for their ability to inhibit the growth of Mycobacterium tuberculosis H37Ra using a standard microtiter dilution method with reduction of the dye resazurin as an indicator of growth. The growth assay was carried out in standard Mycobacterium liquid growth medium, 7H9Broth (BD Biosciences, Franklin Lakes, N.J.) supplemented with 10% ADC enrichment (BD Biosciences, Franklin Lakes, N.J.). The medium was inoculate with ˜1×10^6 cells/milliliter of Mycobacterium tuberculosis H37Ra grown on a the surface of a growth medium solid medium (7H11 agar [BD Biosciences, Franklin Lakes, N.J.] supplemented with 10% OADC enrichment [BD Biosciences, Franklin Lakes, N.J.]).
Two-fold serial dilutions (either 7 or 11-step series) of test compounds in DMSO were dispensed into 96-well assay plates (sterile, black sided, clear bottom wells) in a volume of 1 microliter. One microliter of DMSO was dispensed into a control well at the end of each series. One-hundred microliters of the bacterial cell suspension in growth medium was dispensed into each test well containing a DSMO solution of compound. The assay plates were covered with a fitted lid and incubated at 37° C. in a humidified chamber for 9 days. On the ninth day 30 microliters of a 0.01% solution of resazurin (Sigma Chemical Co., St. Louis, Mo.) in distilled water was added to each well and the baseline fluorescence of resazurin was determined by measuring well fluorescence at an excitation wavelength of 492 nm and an emission wavelength of 595 nm on a Spectrafluor Plus (Tecan, Durham, N.C.) instrument. The assay plates were returned to the incubation chamber for 24 hours. After 24 hours, the fluorescence of the wells (resulting from the reduction of resazurin dye) was measured at an excitation wavelength of 492 nm and an emission wavelength of 595 nm on the Spectrafluor Plus instrument. The minimum inhibitory concentration (MIC) was called as the lowest concentration of compound that inhibited the reduction of resazurin by >70%, as compared to the DMSO (untreated) control wells. MIC values are represented as the following values: • A* <1.6 μM • A 1.6 μM<12.5 μM • B** 12.5 μM-25.0 μM • B* 25.0 μM-50.0 μM • B 50.0 μM-100.0 μM • C >100.0 μM

T1 sequence (P9WI81 whole entry): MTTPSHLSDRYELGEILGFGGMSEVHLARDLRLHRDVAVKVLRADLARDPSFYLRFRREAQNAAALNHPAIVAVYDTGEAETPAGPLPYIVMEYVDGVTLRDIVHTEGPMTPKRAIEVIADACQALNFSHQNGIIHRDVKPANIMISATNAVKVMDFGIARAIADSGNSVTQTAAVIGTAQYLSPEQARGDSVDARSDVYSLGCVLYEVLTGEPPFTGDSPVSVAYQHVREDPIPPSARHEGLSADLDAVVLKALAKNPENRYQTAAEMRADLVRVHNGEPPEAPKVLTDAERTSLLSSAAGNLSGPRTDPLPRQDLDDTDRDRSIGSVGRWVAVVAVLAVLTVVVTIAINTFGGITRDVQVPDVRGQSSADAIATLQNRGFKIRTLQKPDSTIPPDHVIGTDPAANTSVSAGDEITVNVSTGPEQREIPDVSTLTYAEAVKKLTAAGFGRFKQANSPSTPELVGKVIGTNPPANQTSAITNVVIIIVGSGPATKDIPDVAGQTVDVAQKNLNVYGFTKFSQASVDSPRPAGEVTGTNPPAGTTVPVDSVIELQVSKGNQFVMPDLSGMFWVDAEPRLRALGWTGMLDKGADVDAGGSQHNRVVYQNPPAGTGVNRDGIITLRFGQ

Row | SMILES | Ki Values (PknB) | MIC values [1] | Ki (PknB)
1 | C#Cc1cnc(N2CC[C@@H](NC(=O)OC(C)(C)C)C2)nc1Nc1cc(C2CC2)n[nH]1 [Compound 173, tert-butyl [[1-[4-[(5-cyclopropyl-2H-pyrazol-3-yl)amino]-5-ethynyl-pyrimidin-2-yl]pyrrolidin-3-yl]amino]formate] | B, C | B+ | –
2 | CN(C)S(=O)(=O)c1ccc(Nc2nccc(Nc3cc(C4CC4)n[nH]3)n2)cc1 [Compound 103, 4-(4-(3-cyclopropyl-1H-pyrazol-5-ylamino)pyrimidin-2-ylamino)N,N-dimethylbenzenesulfonamide] | A**, A* | B++, B+ | –
3 | N#CCc1ccc(-c2ncc(Cl)c(Nc3cc(C4CC4)[nH]n3)n2)cc1 [Compound 18, 2-(4-(5-chloro-4-(5-cyclopropyl-1H-pyrazol-3-ylamino)pyrimidin-2-yl)phenyl)acetonitrile] | A**, A* | B, B, C | –
4 | CC(C)(C)NS(=O)(=O)c1ccc(-c2ncc(C#CCO)c(Nc3cc(C4CC4)[nH]n3)n2)s1 [Compound 216, N-tert-butyl-5-(4-(5-cyclopropyl-1H-pyrazol-3-ylamino)-5-(3-hydroxyprop-1-ynyl)pyrimidin-2-yl)thiophene-2-sulfonamide] | – | B+ | 1000 to 2000 nM
5 | CS(=O)(=O)Nc1ccc(-c2ncc(Cl)c(Nc3cc(C4CC4)[nH]n3)n2)cc1 [Compound 105, N-[4-[5-chloro-4-[(5-cyclopropyl-1H-pyrazol-3-yl)amino]pyrimidin-2-yl]phenyl]methanesulfonamide] | – | B+ | 10 to 50 nM
6 | C#Cc1cnc(-c2ccc(C(C)(C)C#N)s2)nc1Nc1cc(C2CC2)[nH]n1 [Compound 237, 2-[5-[4-[(5-cyclopropyl-1H-pyrazol-3-yl)amino]-5-ethynyl-pyrimidin-2-yl]-2-thienyl]-2-methyl-propanenitrile] | – | B++ | 1 to 10 nM
7 | CN(C)CCNS(=O)(=O)c1ccc(-c2ncc(Cl)c(Nc3cc(C4CC4)[nH]n3)n2)s1 [Compound 79, 5-[5-chloro-4-[(5-cyclopropyl-1H-pyrazol-3-yl)amino]-pyrimidin-2-yl]-N-(2-dimethylaminoethyl)thiophene-2-sulfonamide] | – | B+, B | 10 to 50 nM
8 | CNS(=O)(=O)c1ccc(-c2ncc(Cl)c(Nc3cc(C4CC4)[nH]n3)n2)s1 [Compound 37, 5-[5-chloro-4-[(5-cyclopropyl-1H-pyrazol-3-yl)amino]-pyrimidin-2-yl]-N-methyl-thiophene-2-sulfonamide] | – | B+ | 1 to 10 nM
9 | CNc1cc(Nc2cc(C3CC3)n[nH]2)nc(-c2ccc(S(N)(=O)=O)s2)n1 [Compound 279, 5-[4-[(5-cyclopropyl-2H-pyrazol-3-yl)amino]-6-methylamino-pyrimidin-2-yl]thiophene-2-sulfonamide] | – | B++ | 1000 to 2000 nM
10 | NCCNS(=O)(=O)c1cccc(-c2ncc(Cl)c(Nc3cc(C4CC4)[nH]n3)n2)c1 [Compound 138, N-(2-aminoethyl)-3-[5-chloro-4-[(5-cyclopropyl-1H-pyrazol-3-yl)amino]-pyrimidin-2-yl]-benzenesulfonamide] | – | B, C | 10 to 50 nM
11 | CCCc1cnc(N2CCCCC2)nc1Nc1cc(C2CC2)[nH]n1 [Compound 66, N-(5-cyclopropyl-1H-pyrazol-3-yl)-2-(1-piperidyl)-5-propyl-pyrimidin-4-amine] | – | B+ | 1000 to 2000 nM
12 | Cc1cnc(-c2ccc([C@@H](C)O)s2)nc1Nc1cc(C2CC2)[nH]n1 [Compound 145, (R)-1-(5-(4-(5-cyclopropyl-1H-pyrazol-3-ylamino)-5-methylpyrimidin-2-yl)thiophen-2-yl)ethanol] | – | B++, B+ | 50 to 100 nM
13 | CC(C)(C)OC(=O)NCc1ccc(-c2ncc(Cl)c(Nc3cc(C4CC4)n[nH]3)n2)s1 [Compound 261, tert-butyl [[5-[5-chloro-4-[(5-cyclopropyl-2H-pyrazol-3-yl)amino]-pyrimidin-2-yl]-2-thienyl]methylamino]formate] | – | B++ | 100 to 500 nM
14 | NS(=O)(=O)c1cccc(-c2ncc(O)c(Nc3cc(C4CC4)n[nH]3)n2)c1 [Compound 99, 3-(4-(3-cyclopropyl-1H-pyrazol-5-ylamino)-5-hydroxypyrimidin-2-yl)benzenesulfonamide] | – | B+, B | 10 to 50 nM
15 | CC(=O)NCc1ccc(-c2ncc(Cl)c(Nc3cc(C4CC4)n[nH]3)n2)s1 [Compound 136, N-((5-(5-chloro-4-(3-cyclopropyl-1H-pyrazol-5-ylamino)pyrimidin-2-yl)thiophen-2-yl)methyl)acetamide] | – | B+ | 10 to 50 nM
16 | CC(O)c1ccc(-c2ncc(F)c(Nc3cc(C4CC4)[nH]n3)n2)s1 (stereo in doubt) [Compound 147, (R)-1-(5-(4-(5-cyclopropyl-1H-pyrazol-3-ylamino)-5-fluoropyrimidin-2-yl)thiophen-2-yl)ethanol] | – | B++ | 10 to 50 nM
17 | C#Cc1cnc(-c2ccc(C(C)(C)O)s2)nc1Nc1cc(C2CC2)[nH]n1 [Compound 180, 2-(5-(4-(5-Cyclopropyl-1H-pyrazol-3-ylamino)-5-ethynylpyrimidin-2-yl)thiophen-2-yl)propan-2-ol] | – | B++ | 10 to 50 nM
18 | C#Cc1cnc(N2CCCC2C(=O)OC)nc1Nc1cc(C2CC2)n[nH]1 (stereo not drawn) [Compound 200, methyl 1-[4-[(5-cyclopropyl-2H-pyrazol-3-yl)amino]-5-ethynyl-pyrimidin-2-yl]pyrrolidine-2-carboxylate] | B, D, D | B, C | –
19 | CS(=O)(=O)Nc1cccc(-c2ncc(Cl)c(Nc3cc(C4CC4)[nH]n3)n2)c1 [Compound 107, N-[3-[5-chloro-4-[(5-cyclopropyl-1H-pyrazol-3-yl)amino]pyrimidin-2-yl]phenyl]methanesulfonamide] | – | B++, B+ | 50 to 100 nM
20 | NS(=O)(=O)c1ccc(-c2ccc([N+](=O)[O-])c(Nc3cc(C4CC4)n[nH]3)n2)s1 [Compound 275, 5-[6-[(5-cyclopropyl-2H-pyrazol-3-yl)amino]-5-nitro-2-pyridyl]thiophene-2-sulfonamide] | – | B++ | 1 to 10 nM
21 | CC(O)c1ccc(-c2nccc(Nc3cc(C4CC4)[nH]n3)n2)cc1 (stereo not drawn) [Compound 312, 1-[4-[4-[(5-cyclopropyl-1H-pyrazol-3-yl)amino]pyrimidin-2-yl]phenyl]ethanol] | – | B+ | 10 to 50 nM
22 | C#Cc1cnc(-c2ccc(S(=O)(=O)NCCO)s2)nc1Nc1cc(C2CC2)[nH]n1 [Compound 108, 5-(4-(3-cyclopropyl-1H-pyrazol-5-ylamino)-5-ethynylpyrimidin-2-yl)-N-(2-hydroxyethyl)thiophene-2-sulfonamide] | – | B+ | 1 to 10 nM
23 | Nc1ccc(Nc2nccc(Nc3cc(C4CC4)n[nH]3)n2)cc1 [Compound 80, N-(4-aminophenyl)-N′-(5-cyclopropyl-2H-pyrazol-3-yl)-pyrimidine-2,4-diamine] | A, B** | B, C | –
24 | CC(C)(C)c1cc(Nc2nc(-c3ccc(S(N)(=O)=O)s3)ncc2Cl)n[nH]1 [Compound 236, 5-(4-(5-tert-butyl-1H-pyrazol-3-ylamino)-5-chloropyrimidin-2-yl)thiophene-2-sulfonamide] | – | A+, A, A, A, A | 100 to 500 nM
25 | N#CCC(=O)Nc1cnc(-c2ccc(S(N)(=O)=O)s2)nc1Nc1cc(C2CC2)[nH]n1 [Compound 254, 2-cyano-N-[4-[(5-cyclopropyl-1H-pyrazol-3-yl)amino]-2-(5-sulfamoyl-2-thienyl)-pyrimidin-5-yl]acetamide] | – | B, C | 100 to 500 nM
26 | C[C@@H](O)c1ccc(-c2ncc(Cl)c(Nc3cc(C4CC4)[nH]n3)n2)s1 (stereo in doubt) [Compound 133, 1-[5-[5-chloro-4-[(5-cyclopropyl-1H-pyrazol-3-yl)amino]-pyrimidin-2-yl]-2-thienyl]ethanol] | A**, A* | B++ | –
27 | Cc1cc(Nc2cc(C3CC3)[nH]n2)nc(-c2ccc(S(N)(=O)=O)s2)n1 [Compound 265, 5-[4-[(5-cyclopropyl-1H-pyrazol-3-yl)amino]-6-methyl-pyrimidin-2-yl]thiophene-2-sulfonamide] | – | B++ | 1 to 10 nM
